Measurements taken from US20060069110A1, “Substituted heterocyclic compounds and methods of use” (priority 2004, published 2006).

What follows are compounds tested on THP1 cells (LPS induced TNF release) (assay: Lipopolysaccharide-Activated THP1 Cell TNF Production Assay). Conditions: Homo sapiens, THP-1; THP1 cells, bacterial LPS, secreted TNF-α after 3 h at 37° C.; read-out: IC50 values in the THP1 cell assay (LPS induced TNF release).
Type: cell-based
In short: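 THP1 cells at 1E6/mL were treated with 3-fold serial compound dilutions and LPS (1 μg/mL stock) for 3 h at 37 °C. Secreted TNF-α was quantified by electrochemiluminescent sandwich immunoassay. Percent of DMSO control versus concentration was fitted to a 4-parameter equation.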

IC50, ≤ 20 µM:
CC(Cc1cccc(CN)c1)Nc1nccc(N(C)c2c[nH]c(=O)c(-c3ccccc3)c2)n1 (stereo not drawn) [Example 171, 5-((2-(1-(3-(Aminomethyl)phenyl)propan-2-ylamino)pyrimidin-4-yl)(methyl)-amino)-3-phenylpyridin-2(1H)-one]
COc1ncc(N(C)c2ccnc(NCCc3ccccc3)n2)cc1-c1ccccc1 [Example 172, N^4-(6-Methoxy-5-phenylpyridin-3-yl)-N^4-methyl-N^2-phenethylpyrimidine-2,4-diamine]
CN(c1cc(-c2ccccc2)c(=O)n(C)c1)c1ccnc(NC2CCN(C(=O)OC(C)(C)C)CC2)n1 [Example 173, tert-Butyl 4-(4-(Methyl(1-methyl-6-oxo-5-phenyl-1,6-dihydropyridin-3-yl)amino)pyrimidin-2-ylamino)piperidine-1-carboxylate]
CN(c1cc(-c2ccccc2)c(=O)n(C)c1)c1ccnc(NC2CCNCC2)n1 [Example 174, 1-Methyl-5-(methyl(2-(piperidin-4-ylamino)pyrimidin-4-yl)amino)-3-phenylpyridin-2(1H)-one]
CC(=O)N1CCC(Nc2nccc(N(C)c3cc(-c4ccccc4)c(=O)n(C)c3)n2)CC1 [Example 175, 5-((2-(1-Acetylpiperidin-4-ylamino)pyrimidin-4-yl)(methyl)amino)-1-methyl-3-phenylpyridin-2(1H)-one]
CN(c1cc(-c2ccccc2)c(=O)n(C)c1)c1ccnc(NCCc2ccccc2)n1 [Example 176, 1-Methyl-5-(methyl(2-(phenethylamino)pyrimidin-4-yl)amino)-3-phenylpyridin-2(1H)-one]
CC(Cc1ccc(F)c(CO)c1)Nc1nccc(N(C)c2cc(-c3ccccc3)c(=O)n(C)c2)n1 (stereo not drawn) [Example 177, 5-((2-(1-(4-Fluoro-3-(hydroxymethyl)phenyl)propan-2-ylamino)pyrimidin-4-yl)(methyl)amino)-1-methyl-3-phenylpyridin-2(1 H)-one]
C[C@@H](Cc1cccc(CN)c1)Nc1nccc(N(C)c2cc(-c3ccccc3)c(=O)n(C)c2)n1 [Example 178, (S)-5-((2-(1-(3-(Aminomethyl)phenyl)propan-2-ylamino)pyrimidin-4-yl)(methyl)-amino)-1-methyl-3-phenylpyridin-2(1H)-one]
C[C@@H](Cc1cccc([C@@H](C)N)c1)Nc1nccc(N(C)c2cc(-c3ccccc3)c(=O)n(C)c2)n1 [Example 179, 5-((2-((S)-1-(3-((R)-1-Aminoethyl)phenyl)propan-2-ylamino)pyrimidin-4-yl)(methyl)amino)-1-methyl-3-phenylpyridin-2(1H)-one]
CC(Cc1cccc(CN)c1)Nc1nccc(N(C)c2cc(N)nc(-c3ccccc3)n2)n1 (stereo not drawn) [Example 181, N^4-(2-(1-(3-(Aminomethyl)phenyl)propan-2-ylamino)pyrimidine-4-yl)-N^4-methyl-2-phenylpyrimidine-4,6-diamine]
Clc1nnc(Nc2ccnc(N3CCCC3Cc3ccccc3)n2)cc1-c1ccccc1 (stereo not drawn) [Example 182, N-(2-(2-Benzylpyrrolidin-1-yl)pyrimidin-4-yl)-6-chloro-5-phenylpyridazin-3-amine]
Clc1ccccc1CCNc1nccc(Nc2cc(-c3ccccc3)c(Cl)nn2)n1 [Example 183, N^2-(2-Chlorophenethyl)-N4-(6-chloro-5-phenylpyridazin-3-yl)pyrimidine-2,4-di-amine]
CN(c1ccnc(NCCc2ccccc2)n1)c1nccc(-c2ccccc2)n1 [Example 184, N^4-Methyl-N^2-phenethyl-N^4-(4-phenylpyrimidin-2-yl)pyrimidine-2,4-diamine]
CN(c1ccnc(NCCc2ccccc2Cl)n1)c1nccc(-c2ccccc2)n1 [Example 185, N^2-(2-Chlorophenethyl)-N^4-methyl-N^4-(4-phenylpyrimidin-2-yl)pyrimidine-2,4-diamine]
CN(c1ccnc(NCCc2ccccc2)n1)c1nccc(C(C)(C)C)n1 [Example 186, N^4-(4-tert-Butylpyrimidin-2-yl)-N^4-methyl-N^2-phenethylpyrimidine-2,4-diamine]
CN(c1ccnc(-c2ccccc2)n1)c1ccnc(N2CC[C@H]2Cc2ccccc2)n1 [N-methyl-2-phenyl-N-(2-((2R)-2-(phenylmethyl)-1-azetidinyl)-4-pyrimidinyl)-4-pyrimidinamine]
Cc1nccn1-c1nccc(N(C)c2ccnc(-c3ccccc3)n2)n1 [N-methyl-N-(2-(2-methyl-1H-imidazol-1-yl)pyrimidin-4-yl)-2-phenylpyrimidin-4-amine]
CN(c1cnc(OCc2ccccc2)c(-c2ccccc2)c1)c1ccnc(NC2CCNCC2)n1 [N^4-(6-(Benzyloxy)-5-phenylpyridin-3-yl)-N^4-methyl-N^2-(piperidin-4-yl)-pyrimidine-2,4-diamine]
